In assay [1] the test system is WM3928 cells. As to the kind of experiment: WM3928 Cell Proliferation Assay (1). In kind it is cell-based. Here is the method: WM3928 Cell Proliferation Assay (1)
WM3928 cells (#WM3928-01-0001) are obtained from Rockland Immunochemicals Inc (Gilbertsville, PA). Briefly, cells were grown in MCDB 153 medium (Sigma, #M7403, St. Louis, MO) supplemented with 20% Leibovitz's L-15 (ThermoFisher #11415-064, Waltham, MA), 2% heat inactivated fetal bovine serum (ThermoFisher, #A3840001, Waltham, MA), 5 μg/mL Insulin (Bovine Pancreas) (Sigma, #I0516, St. Louis, MO), 1.68 mM Calcium Chloride (Sigma, #C-34006, St. Louis, MO) and 1% Penicillin/Streptomycin/L-Glutamine (ThermoFisher #10378016, Waltham, MA) at 37° C., 5% CO2, and 95% humidity. Cells are expanded until reaching 70-95% confluency at which point they are subcultured or harvested for assay use. A serial dilution of test compound is dispensed into a 96-well black clear bottom plate in triplicate. Three thousand cells are added per well in 200 μL complete growth medium in the 96-well plate. Plates are incubated for 67-72 hours at 37° C., 5% CO2, and 95% humidity. At the end of the incubation, 40 μL of a 440 μM solution of resazurin (Sigma, #199303, St. Louis, MO) in PBS is added to each well of the plate and plates are incubated for an additional 6-7 hours at 37° C., 5% CO2, and 95% humidity. Plates are read on a Synergy2 or equivalent reader (Biotek, Winooski VT) using an excitation of 540 nm and an emission of 600 nm. Data is analyzed using Prism software (GraphPad, San Diego, CA) to calculate IC50 values.

Assay [2] deals with H2405 cells. Briefly: H2405 Cell Proliferation Assay (1). The class given is cell-based. The note with it: Homo sapiens, NCI-H2405. Here is the method: H2405 Cell Proliferation Assay (1)
(§1) H2405 cells (catalog #CRL-5994) are obtained from the American Type Culture Collect (ATTC, Manassas, VA). Briefly, cells were grown in RPMI 1640 supplemented with 5% characterized fetal bovine serum (Invitrogen, Carlsbad, CA) and 1% Penicillin/Streptomycin/L-Glutamine at 37° C., 5% CO2, and 95% humidity. Cells are expanded until reaching 70-95% confluency at which point they are sub-cultured or harvested for assay use. A serial dilution of test compound is dispensed into a 96-well black clear bottom plate in triplicate. Three thousand cells are added per well in 200 μL complete growth medium in the 96-well plate. Plates are incubated for 67-72 h at 37° C., 5% CO2, and 95% humidity. At the end of the incubation, 40 μL of a 440 μM solution of resazurin (Sigma, St. Louis, MO) in PBS is added to each well of the plate and plates are incubated for an additional 5-6 h at 37° C., 5% CO2, and 95% humidity. Plates are read on a Synergy2 or equivalent reader (Biotek, Winooski VT) using an excitation of 540 nm and an emission of 600 nm. Data is analyzed using Prism software (GraphPad, San Diego, CA) to calculate IC50 values.

The test system of assay [3] is A375 cells. Briefly: A375 Cell Proliferation Assay (1). The class given is cell-based. The note with it: Homo sapiens, A-375. Here is the method:
A375 Cell Proliferation Assay (1)
as §1, with “A375 cells” for “H2405 cells”, “(catalog (#CRL-1619)” for “(catalog #CRL-5994)”, “in DMEM High Glucose” for “in RPMI 1640”, “with 10%” for “with 5%”, “triplicate. Two” for “triplicate. Three”, “thousand five hundred” for “thousand”

The target in assay [4] is A-Raf kinase (SEQ. ID No: 1) (Homo sapiens (Human), UniProt P10398, Y301D/Y302D). As to the kind of experiment: Biochemical Assay for A-Raf (1). The settings on record: Table J, assay version (1); read-out: ARAF (1) IC50. Put shortly:
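IC50 values were derived by four-parameter sigmoidal fitting of percent inhibition, calculated from reaction rates over the 4–5 h window. Absorbance at 340 nm was tracked for 6 h at 30 °C via coupled PK/LDH NADH depletion. Conditions: 1 mM ATP, 30.1 nM MEK substrate, 5.55 nM A-Raf (Y301D/Y302D), Tris pH 7.5, 1% DMSO.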

For assay [5], the system named is Miapaca-2 cells. Briefly: MiaPaca-2 Cell Proliferation Assay (1). The class given is cell-based. The note with it: Homo sapiens, MIA PaCa-2, single agent, read-out: MiaPaca2 (1) IC50. Here is the method:
MiaPaca-2 Cell Proliferation Assay (1)
as §1, with “Miapaca-2 cells” for “H2405 cells”, “(catalog #CRL-1420)” for “(catalog #CRL-5994)”, “in DMEM” for “in RPMI 1640”, “with 10%” for “with 5%”, “Carlsbad, CA), 2.5% New Zealand sourced horse serum” for “Carlsbad, CA)”

In assay [6] the target is B-Raf (V600E) (SEQ. ID NO: 4) kinase (Homo sapiens (Human), UniProt P15056, V600E). Briefly: Biochemical Assay for B-Raf (V600E) (1). The settings on record: Table J, BRAF V600E, assay version (1); read-out: BRAF VE (1) IC50. The essentials: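 Serially diluted compounds tested against 0.03 nM enzyme with 30.1 nM MEK substrate and 1 mM ATP (Tris pH 7.5, 15 mM MgCl2), ATP use coupled to NADH loss via PK/LDH. A340 monitored continuously 6 h, 30 °C; IC50 fitted (four-parameter) from the 3–4 h rate versus no-compound and known-inhibitor controls.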
Sequence of B-Raf (V600E) (SEQ. ID NO: 4) kinase (P15056 416-766 V600E): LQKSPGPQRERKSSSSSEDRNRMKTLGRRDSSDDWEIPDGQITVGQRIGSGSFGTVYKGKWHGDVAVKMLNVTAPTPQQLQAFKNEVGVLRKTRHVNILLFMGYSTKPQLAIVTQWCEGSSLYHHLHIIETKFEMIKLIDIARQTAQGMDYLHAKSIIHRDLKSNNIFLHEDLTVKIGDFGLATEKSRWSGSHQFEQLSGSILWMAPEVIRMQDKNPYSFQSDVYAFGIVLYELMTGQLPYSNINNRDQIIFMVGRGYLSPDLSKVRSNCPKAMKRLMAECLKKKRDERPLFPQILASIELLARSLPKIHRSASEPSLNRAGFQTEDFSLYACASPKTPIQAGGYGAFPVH

Assay [7] deals with Miapaca-2 cells. Briefly: MiaPaca-2 Combination Cell proliferation Assay (1) with cobimetinib. The class given is cell-based. The note with it: MiaPaca-2 cell proliferation, read-out: MiaPaca-2 Combo (1) IC50. Here is the method: MiaPaca-2 Combination Cell proliferation Assay (1)
Miapaca-2 cells (catalog #CRL-1420) are obtained from the American Type Culture Collect (ATCC, Manassas, VA). Briefly, cells were grown in DMEM supplemented with 10% characterized fetal bovine serum (Invitrogen, Carlsbad, CA), 2.5% New Zealand sourced horse serum and 1% Penicillin/Streptomycin/L-Glutamine at 37° C., 5% CO2, and 95% humidity. Cells are expanded until reaching 70-95% confluency at which point they are subcultured or harvested for assay use. A serial dilution of test compound was dispensed into multiple 96-well black clear bottom plates in triplicate. A serial dilution of complete growth medium containing cobimetinib was prepared at twice the final concentration and 100 μL was dispensed across the test compound titration in triplicate. Three thousand cells are added per well in 100 μL complete growth medium in each 96-well plate. Plates are incubated for 67-72 hours at 37° C., 5% CO2, and 95% humidity. At the end of the incubation, 40 μL of a 440 μM solution of resazurin (Sigma, St. Louis, MO) in PBS is added to each well of the plate and plates are incubated for an additional 5-7 hours at 37° C., 5% CO2, and 95% humidity. Plates are read on a Synergy2 or equivalent reader (Biotek, Winooski VT) using an excitation of 540 nm and an emission of 600 nm. Drug synergy was assessed via BLISS analysis in the Combenefit software (Cancer Research UK Cambridge Institute, Cambridge, UK). Data is analyzed using Prism software (Graphpad, San Diego, CA) to calculate IC50 values. Shifts in test compound IC50 values are reported from top-constrained combination therapy curves.

For assay [8], the target named is B-Raf kinase (SEQ. ID NO: 2) (Homo sapiens (Human), UniProt P15056). As to the kind of experiment: Biochemical Assay for B-Raf (1). The settings on record: Table J, assay version (1); read-out: BRAF (1) IC50. Put shortly: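 IC50 derived by four-parameter sigmoidal fit of percent inhibition, normalised to uninhibited and reference-inhibitor controls, using reaction rates over 4–5 h. Coupled spectrophotometric readout (NADH loss at 340 nm, 6 h, 30° C.); 1 mM ATP, 30.1 nM MEK, 0.13 nM B-Raf, pH 7.5 Tris buffer, 1% DMSO.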
Sequence of B-Raf kinase (SEQ. ID NO: 2) (P15056 416-766): as the sequence (P15056 416-766 V600E) above, with E185V counted along it

Assay [9] addresses C-Raf kinase (SEQ. ID NO: 3) (Homo sapiens (Human), UniProt P04049, Y340D/Y341D). Briefly: Biochemical Assay for C-Raf (1). The settings on record: Table J, assay version (1); read-out: CRAF (1) IC50. Put shortly:
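IC50 values come from a four-parameter fit of percent inhibition, using the reaction rate over 4–5 h of a 6 h continuous 340 nm read at 30 °C. The enzyme mix was C-Raf 0.43 nM, MEK substrate 30.1 nM and ATP 1 mM, in a PK/LDH NADH-coupled format in Tris pH 7.5 with 1% DMSO.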

Sequence of C-Raf kinase (SEQ. ID NO: 3) (P04049 307-648 Y340D/Y341D): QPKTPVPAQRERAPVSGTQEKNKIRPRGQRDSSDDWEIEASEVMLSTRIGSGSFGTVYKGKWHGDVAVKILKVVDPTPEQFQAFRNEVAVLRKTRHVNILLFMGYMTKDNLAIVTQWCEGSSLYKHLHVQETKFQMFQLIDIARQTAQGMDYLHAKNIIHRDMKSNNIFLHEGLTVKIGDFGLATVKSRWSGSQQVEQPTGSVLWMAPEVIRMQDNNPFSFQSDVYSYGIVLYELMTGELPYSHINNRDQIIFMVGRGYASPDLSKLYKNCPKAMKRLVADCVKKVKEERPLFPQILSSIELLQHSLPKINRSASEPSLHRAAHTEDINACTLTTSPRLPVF
Sequence of A-Raf kinase (SEQ. ID No: 1) (P10398 other isoform, or with tags, fused parts or gaps Y301D (already in the parent)/Y302D (already in the parent)): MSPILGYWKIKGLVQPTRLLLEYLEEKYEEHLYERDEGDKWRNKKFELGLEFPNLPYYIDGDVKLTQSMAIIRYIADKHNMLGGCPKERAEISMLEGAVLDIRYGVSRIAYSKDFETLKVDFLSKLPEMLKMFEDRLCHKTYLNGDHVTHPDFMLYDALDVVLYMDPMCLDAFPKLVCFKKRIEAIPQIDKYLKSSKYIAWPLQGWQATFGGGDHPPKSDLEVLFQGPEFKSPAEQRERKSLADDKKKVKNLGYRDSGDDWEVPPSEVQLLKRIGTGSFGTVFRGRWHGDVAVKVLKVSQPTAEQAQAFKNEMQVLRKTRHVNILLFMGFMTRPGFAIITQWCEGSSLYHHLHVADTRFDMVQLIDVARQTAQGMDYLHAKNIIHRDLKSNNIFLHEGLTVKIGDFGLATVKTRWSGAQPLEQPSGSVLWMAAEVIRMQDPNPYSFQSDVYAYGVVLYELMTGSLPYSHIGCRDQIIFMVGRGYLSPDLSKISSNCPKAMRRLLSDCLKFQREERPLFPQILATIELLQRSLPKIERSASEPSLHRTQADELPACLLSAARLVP

As to `Cc1ccc(NC(=O)c2ccnc(C(F)(F)F)c2)cc1-c1cccc(-c2ccnc(NC(=O)C3CC3)c2)c1` [Example 58], the 50% inhibitory concentration (IC50) in [1] is 100 to 500 nM; in assay [2], ≤ 100 nM; in assay [3] it was 100 to 500 nM; in [4] it was 1 to 10 µM; in assay [5], 1 to 10 µM.

Consider `Cc1ccc(NC(=O)c2ccnc(C(C)(C)C#N)c2)cc1-c1cccc(-c2cc(NC(=O)C(C)(C)C)ncn2)c1` [Example 210], for which the IC50 is ≤ 100 nM in [6]; 1 to 10 µM in assay [4]; 100 to 500 nM in assay [7]; 500 to 1000 nM in [8]; 500 to 1000 nM in [9].

On to `Cc1ccc(NC(=O)c2ccnc(C(C)(C)C#N)c2)cc1-c1ccnc(-c2ccncc2)c1` [Example 55], for which the figures for the 50% inhibitory concentration (IC50) in assay [3], in assay [4] and in assay [5] were 500 to 1000 nM, 1 to 10 µM and 1 to 10 µM, respectively.

Consider `CNc1cc(-c2cccc(-c3cc(NC(=O)c4ccnc(C(C)(C)C#N)c4)cnc3C)c2)ncn1` [Example 227], for which the IC50 in assay [2] is 1000 to 10000 nM; in [3], 1000 to 10000 nM; in assay [4], 1 to 10 µM; in assay [8], 100 to 500 nM; in [9] it was 100 to 500 nM.

`Cc1ccc(NC(=O)c2ccnc(C(F)(F)F)c2)cc1-c1cc(-c2ccnc(N)c2)n(C)c(=O)c1` [Example 53]: the 50% inhibitory concentration (IC50) lay in the range of 1000 to 10000 nM in assay [2]; 1000 to 10000 nM in assay [3]; 1 to 10 µM in assay [4]; 500 to 1000 nM in [8]; 100 to 500 nM in assay [9].

As for `Cc1ccc(NC(=O)c2cnnc(C3CC3)c2)cc1-c1nccc(-c2ccnc(NC(=O)C3CC3)c2)n1` [Example 272], the concentration for half-maximal inhibition (IC50) is 100 to 500 nM in assay [1]; 100 to 500 nM in [2]; 1000 to 10000 nM in assay [3]; 1 to 10 µM in assay [4]; 1 to 10 µM in assay [5].

Take `COC(=O)Nc1cc(-c2cncc(-c3cc(NC(=O)c4ccnc(C(C)(F)F)c4)ccc3C)c2)ncn1` [Example 238]: the 50% inhibitory concentration (IC50) in assay [1] was ≤ 100 nM; in [2] it was 100 to 500 nM; in [3], ≤ 100 nM; in assay [5] it was 1 to 10 µM; in assay [7], 100 to 500 nM.

For `Cc1ccc(NC(=O)c2cc(C3CC3)n(C)n2)cc1-c1ccnc(-c2ccnc(NC(=O)C3CC3)c2)n1` [Example 236], the half-inhibitory concentration (IC50) in assay [1] is 500 to 1000 nM; in [2], 100 to 500 nM; in [3], 1000 to 10000 nM; in assay [5], 1 to 10 µM.
